Data on 14 compounds can be found in ChEMBL document CHEMBL1201862, “PubChem BioAssay data set” (2004).

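These data come from cells grown in 96-well plates and exposed to compound for 48 hours at five concentrations. The concentration for 50% growth inhibition is given as GI50.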 Active and inactive are the calls of the source. Rule as the data show it: active = GI50 up to about 1.1 µM and inactive = higher. Where only a bound is given, the exact number is not on record here.

Assay in all cases: NCI anticancer screen, dose series, 48 h
For test [1], the system named is SF-539.
The test system of test [2] is DU-145.
Test [3] concerns MDA-MB-435.
The subject of test [4] is LOX IMVI.
For test [5], the system named is COLO 205.
Test [6] relates to SF-268.
Test [7] has as its system M14.
Test [8] concerns HCC 2998.
Test [9] has as its system SK-MEL-5.
Test [10] has as its system SK-MEL-2.
Test [11] concerns NCI/ADR-RES.
In test [12] the test system is HOP-92.
Test [13] deals with KM12.
Test [14] has as its system MDA-N.
Test [15] deals with SW-620.
In test [16] the test system is UO-31.
The test system of test [17] is T47D.
Test [18] concerns PC-3.
Test [19] relates to SK-OV-3.
Test [20] concerns LXFL 529.

For the compound `COC(=O)C12OCC34C(CC5C(C)=C(O)C(=O)CC5(C)C3C(O)C1O)OC(=O)C(OC(=O)C=C(C)C)C24` (centres undefined), the GI50 in [1] is > 500 µM (inactive); in test [2], 0.318 µM (active); in [3] it was < 0.215 µM (active); in [4], 283 µM (inactive); in test [5] it was > 500 µM (inactive); in [6], > 500 µM (inactive). Further, the GI50 was < 0.215 µM (active) in test [7]; 453 µM (inactive) in [8]; 191 µM (inactive) in test [9]; > 500 µM (inactive) in test [10]; > 500 µM (inactive) in test [11]; 234 µM (inactive) in test [12]. The GI50 is 411 µM (inactive) in test [13]; < 0.215 µM (active) in [14]; > 500 µM (inactive) in [15]; > 500 µM (inactive) in [16]; 0.0132 µM (active) in test [17]; 0.23 µM (active) in test [18]. Moreover, in [19], the GI50 was > 500 µM (inactive).
In the case of `CC(=O)c1c(C)[n+]([O-])c2cc(C)c(C)cc2[n+]1[O-]`, the GI50 in test [1], in [4], in test [5], in [6], in [7] and in test [8] was > 100 µM (inactive) in each case. Further, the GI50 in test [9], in [10], in [13], in test [20], in test [15] and in [16] was > 100 µM (inactive) in each case. The GI50 in test [19] is > 100 µM (inactive).
Take `COc1ccc(OC)c(CCc2cc(OC)c(OC)cc2C)c1`: the GI50 in test [5] was 33.4 µM (inactive); in test [6], 42 µM (inactive); in [7] it was 4.26 µM (inactive); in [8], 27.5 µM (inactive); in test [9], 1.62 µM (inactive); in test [10], 6.68 µM (inactive). Further, the GI50 in test [13] was 0.63 µM (active); in [20], 30.1 µM (inactive); in test [15], 5.6 µM (inactive); in test [16], 30.1 µM (inactive); in test [19], 23 µM (inactive).
For `Nc1nc2c(ncn2CCOC(c2ccccc2)P(=O)(O)O)c(=O)[nH]1` (centres undefined), the GI50 in test [1], in test [4], in [5], in test [6], in test [8] and in test [9] was > 100 µM (inactive) in each case. For the same compound, the GI50 in test [10], in [13], in test [20], in test [15], in test [16] and in test [19] was > 100 µM (inactive) each time.
Consider `COC(=O)C(=O)C(/C(=N/N)C(=O)Nc1ccccc1C(N)=O)c1nc2ccc([N+](=O)[O-])cc2nc1O` (centres undefined), for which the GI50 in [1], in test [4], in [5], in [6], in test [7] and in test [8] was > 100 µM (inactive) each time. For the same compound, the GI50 is > 100 µM (inactive) in test [9]; > 100 µM (inactive) in [10]; > 100 µM (inactive) in test [13]; > 100 µM (inactive) in [20]; > 100 µM (inactive) in test [15]; 58.2 µM (inactive) in test [16].
`[O-][S+]1C(=c2ccc(=C3Sc4ccccc4S3)cc2)Sc2ccccc21` (centres undefined): the GI50 was 15.6 µM (inactive) in [1]; 17.9 µM (inactive) in test [4]; > 100 µM (inactive) in test [5]; 12.4 µM (inactive) in [6]; 15.1 µM (inactive) in test [7]; 16 µM (inactive) in test [8]. Also, the GI50 was 19.2 µM (inactive) in [9]; 21.3 µM (inactive) in test [10]; > 67.3 µM (inactive) in test [12]; 17.4 µM (inactive) in test [13]; 51.2 µM (inactive) in test [20]; > 100 µM (inactive) in test [15]. Also, the GI50 was 17.2 µM (inactive) in test [16] and 21.8 µM (inactive) in test [19].
For the compound `O=[N+]([O-])c1ccc(C2N3CCCCC3[C@H]3CCCCN23)cc1` (some centres undefined), the GI50 in test [1], in test [4], in test [5], in [6], in test [7] and in test [9] was > 100 µM (inactive) each time. The GI50 in test [10], in [12], in [13], in test [20], in [15] and in test [16] was > 100 µM (inactive) each time. Also, in test [19], the GI50 was > 100 µM (inactive).
Take `NC(=O)NNC(=O)CCn1[nH]c(=O)c(Cl)c(Cl)c1=O`: the GI50 in [4], in [5], in [6], in test [7], in test [8] and in [9] was > 100 µM (inactive) in each case. In addition, the GI50 in test [10], in [12], in test [20], in test [15], in test [16] and in [19] was > 100 µM (inactive) each time.
Turning to `COc1ccc(C2=Nc3ccccc3SC(C)C2)cc1` (centres undefined), the GI50 in [1] is > 100 µM (inactive); in [4] it was 38.4 µM (inactive); in [5], > 100 µM (inactive); in [6], > 100 µM (inactive); in [7] it was > 100 µM (inactive); in test [8], > 100 µM (inactive). For the same compound, the GI50 is > 100 µM (inactive) in test [10]; > 100 µM (inactive) in [12]; 32.2 µM (inactive) in test [13]; 85.1 µM (inactive) in test [20]; > 100 µM (inactive) in [15]; > 100 µM (inactive) in test [16]. The GI50 in [19] is > 100 µM (inactive).
Turning to `CCOc1cccc(/C=N\c2ccccc2SSc2ccccc2/N=C\c2cccc(OCC)c2O)c1O`, the GI50 in [1] is 26.5 µM (inactive); in test [2] it was 16.6 µM (inactive); in test [3] it was 11.5 µM (inactive); in [4], 4.47 µM (inactive); in test [5], 3.02 µM (inactive); in test [6], 4.22 µM (inactive). The GI50 in [7] was 4.06 µM (inactive); in [8] it was 17.2 µM (inactive); in [9], 2.21 µM (inactive); in test [10], 16.5 µM (inactive); in [11] it was 3.55 µM (inactive); in test [12], 11.5 µM (inactive). For the same compound, the GI50 in test [13] is 6.82 µM (inactive); in [14], 14.2 µM (inactive); in test [15], 8.49 µM (inactive); in test [16], 13.7 µM (inactive); in [17], 1.26 µM (inactive); in test [18], 3.17 µM (inactive). Moreover, the GI50 in test [19] is 23.2 µM (inactive).
Take `COc1cc2c(cc1OC)C13CCN4CC5=CCOC6CC(=O)N2C1C6C5CC43O` (centres undefined): the GI50 in [1], in test [2], in [3], in test [4], in test [5] and in [6] was > 100 µM (inactive) each time. The GI50 in [7], in test [8], in test [9], in [10], in test [11] and in test [12] was > 100 µM (inactive) in each case. Moreover, the GI50 in test [13], in test [14], in test [15], in [16], in test [17] and in [18] was > 100 µM (inactive) each time. Further, the GI50 in test [19] is > 100 µM (inactive).
On to `CCOc1ccccc1NC(=O)CC1C(=O)Nc2ccccc2[S+]1[O-]` (centres undefined), for which the GI50 is > 100 µM (inactive) in test [1]; > 100 µM (inactive) in [4]; > 100 µM (inactive) in test [6]; 77.1 µM (inactive) in [7]; > 100 µM (inactive) in [8]; 54.8 µM (inactive) in test [9]. The GI50 is > 100 µM (inactive) in [10]; 43.1 µM (inactive) in test [12]; 56.8 µM (inactive) in [20]; > 100 µM (inactive) in test [15]; 85.3 µM (inactive) in test [16].
For `O=c1c(C(c2cccnc2)c2c(O)oc3cc(O)ccc3c2=O)c(O)oc2cc(O)ccc12`, the GI50 in test [1], in [2], in test [3], in test [4], in test [5] and in test [6] was > 100 µM (inactive) throughout. The GI50 in test [7], in test [8], in test [9], in test [10], in [11] and in test [12] was > 100 µM (inactive) each time. Also, the GI50 in test [13], in test [14], in test [15], in [16], in test [17] and in test [18] was > 100 µM (inactive) each time. The GI50 in test [19] is > 100 µM (inactive).
In the case of `CCC1C(=O)OCc2c1cc1n(c2=O)Cc2ccccc2-1` (centres undefined), the GI50 in [1], in test [4], in test [6], in [7], in test [8] and in test [9] was > 100 µM (inactive) in each case. The GI50 in [10], in [12], in [13], in test [20], in test [15] and in [16] was > 100 µM (inactive) in each case.
